Measured values from ChEMBL document CHEMBL1949584, “Design and synthesis of novel inhibitors of human kynurenine aminotransferase-I” (Bioorg Med Chem Lett, 2012).

Key:
[1] = biological target: T1, Kynurenine--oxoglutarate transaminase 1 (Homo sapiens, UniProt Q16773); test: Inhibition of human recombinant KAT1 after 20 mins by RP-HPLC analysis
T1 sequence (Q16773 whole entry): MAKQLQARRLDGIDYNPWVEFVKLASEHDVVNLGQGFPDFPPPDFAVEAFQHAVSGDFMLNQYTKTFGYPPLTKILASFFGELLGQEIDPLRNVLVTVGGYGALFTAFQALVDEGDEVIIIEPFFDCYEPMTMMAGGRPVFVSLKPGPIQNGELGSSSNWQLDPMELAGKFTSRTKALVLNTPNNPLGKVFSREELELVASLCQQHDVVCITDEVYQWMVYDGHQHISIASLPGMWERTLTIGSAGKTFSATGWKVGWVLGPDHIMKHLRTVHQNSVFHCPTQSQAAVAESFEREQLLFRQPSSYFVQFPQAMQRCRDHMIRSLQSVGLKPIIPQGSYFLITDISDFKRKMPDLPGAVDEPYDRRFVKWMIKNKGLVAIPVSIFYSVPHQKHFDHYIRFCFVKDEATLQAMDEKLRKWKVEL

[2] = biological target: T2, Kynurenine--oxoglutarate transaminase 1 (Homo sapiens) (UniProt Q16773); test: Ratio of compound IC50 to indole-3-propionic acid IC50 for human recombinant KAT1
T2 sequence (whole entry): T1 sequence (Q16773 whole entry)

Structure (SMILES)	IC50 [1] [µM]	Ratio IC50 [2]
Cc1ccc2[nH]c(C(=O)O)c(CCC(=O)O)c2c1	> 1000	
CCOC(=O)/C(CCCC(=O)O)=N\Nc1ccc(Cl)cc1	20	7
CCOC(=O)/C(CCCC(=O)O)=N\Nc1ccc(I)cc1	34	
COc1ccc2[nH]c(C(=O)O)c(CCC(=O)O)c2c1	> 6000	
O=C(O)CCc1c(C(=O)O)[nH]c2ccc([N+](=O)[O-])cc12	666	

The remaining compounds from weak to strong by IC50 [1], led by results:

IC50 [1] [µM]	Ratio IC50 [2]	Structure (SMILES)
293		O=C(O)CCc1c(C(=O)O)[nH]c2ccc(Cl)cc12
271		O=C(O)CCc1c(C(=O)O)[nH]c2ccc(Br)cc12
179		CCOC(=O)/C(CCCC(=O)O)=N\Nc1ccc([N+](=O)[O-])cc1
43		CCOC(=O)/C(CCCC(=O)O)=N\Nc1ccc(OC)cc1
33		CCOC(=O)/C(CCCC(=O)O)=N\Nc1ccc(C)cc1
21		CCOC(=O)/C(CCCC(=O)O)=N\Nc1ccc(Br)cc1
20	7	CCOC(=O)/C(CCCC(=O)O)=N\Nc1cccc(Cl)c1
